Where two headings read alike, the source gives them in different places.
Experiments:
HepG2 cells [1] = test: Cellular ATP content of HepG2 cells in glucose or galactose medium (ATP bioluminescent assay); type: cell-based; conditions: 2 h; for EC50ATPglu/EC50ATPgal: ratio ≥ 2 identifies a mitochondrial liability; for decrease in ATP content in galactose medium compared with glucose medium: up to 300 µM; for EC50: Homo sapiens, concentration reducing cellular ATP content by 50%
Description: Metabolic switching of cells was performed based on work previously described by ([[…] et al., 2015]). Briefly, 24 h prior to metabolic switch, HepG2 cells were collected by trypsinization and seeded on a collagen-coated flat-bottomed 96-well plate (20 000 cells/50 μl/well) and incubated (37°C, 5% CO2) overnight. […] Flutamide, 2-hydroxyflutamide and bicalutamide stock solutions were prepared in DMSO and diluted further in the appropriate medium. Compounds (50 μl) were then added to each well and cells were incubated for 2 h (37 °C, 5% CO2). All assays used ≤ 0.5% DMSO as a vehicle control. […] LDH content of the cells and supernatant was assessed using a cytotoxicity detection kit according to the manufacturer's instructions. ATP content was assessed using an ATP bioluminescent assay according to the manufacturer's instructions. Briefly, 10 μl of cell lysate or ATP standard curve solutions were added to a white-walled 96-well plate before addition of 40 μl ATP assay mix. Protein content of all wells was then assessed using a BCA assay applied to 10 μl of cell lysate and standards. LDH (490 nm), BCA (570 nm), and ATP assay luminescence were then measured using a plate reader (Varioskan, Thermo Scientific). ATP content readings were normalized to protein content. Experiments were conducted in a minimum of triplicate to ensure the reliability of single values. EC50 data were determined by nonlinear regression analysis using GraphPad Prism 5.0. Normality was assessed using a Shapiro-Wilk statistical test. Statistical significance was determined by an unpaired t-test for parametric data and a Mann-Whitney U test for non-parametric data using StatsDirect 2.7.9. P < .05 was taken as showing a significant difference.

[2] = system: mitochondrial respiratory complex I; test: In situ respiratory complex assay in permeabilized cells, complex I; type: cell-based; conditions: uncoupled, permeabilized HepG2 cells, 10–250 µM
[3] = system: mitochondrial respiratory complex II; test: In situ respiratory complex assay in permeabilized cells, complex II; type: cell-based; conditions: uncoupled, permeabilized HepG2 cells, 10–250 µM
[4] = system: mitochondrial respiratory complex IV; test: In situ respiratory complex assay in permeabilized cells, complex IV; type: cell-based; conditions: uncoupled, permeabilized HepG2 cells, 10–250 µM
[5] = system: mitochondrial respiratory complex I; test: Complex I-linked respiration assay in permeabilized cells; type: cell-based; conditions: for concentration inducing a significant reduction in complex I activity: permeabilized HepG2 cells, complex I-stimulated maximal respiration vs vehicle control, 10–250 µM
Description: (§1) Culture medium was replaced with MAS buffer containing constituents to stimulate oxygen consumption via complex I (as previously without FCCP), complex II (ADP; 4.6 mM, succinate; 20 mM, rotenone; 1 µM, BSA; 0.2% w/v, PMP; 1 nM), or complex III (ADP; 4.6 mM, duroquinol; 500 μM, rotenone; 1 μM, malonic acid; 40 μM, BSA; 0.2% w/v, PMP; 1 nM) dependent on the respiratory complex of interest. […] Changes in complex II activity were also assessed at lower compound concentrations; 2–30 μM (Supplementary Figure S1). Complex I, II, and III activity were defined by the change in complex I, II, or III-stimulated maximal respiration respectively compared with vehicle control.
(§2) Following completion of OCR assays, medium was removed from all wells and 20 µl of somatic cell ATP releasing agent was added to each well before shaking for 1 min and transfer of 10 µl of lysate to a 96-well plate and performance of a BCA assay according to the manufacturer’s instructions. Protein content per well was used to normalize OCR.

[6] = system: mitochondrial respiratory complex II; test: Complex II-linked respiration assay in permeabilized cells; type: cell-based; conditions: permeabilized HepG2 cells; for complex II activity: complex II-stimulated maximal respiration vs vehicle control, 10–250 µM
Description: as §1, §2

[7] = system: mitochondrial respiratory complex III; test: Complex III-linked respiration assay in permeabilized cells; type: cell-based; conditions: permeabilized HepG2 cells, complex III-stimulated maximal respiration, 10–250 µM
Description: as §1, §2

Complex V (ATP synthase) = test: Complex V assay in permeabilized cells; type: cell-based; conditions: permeabilized HepG2 cells, OCR change coupled vs uncoupled cells, 10–250 µM
Description: The assay consisted of a basal OCR measurement of 2 cycles of mix (30 s), wait (30 s), and measure (2 min) followed by MAS or FCCP injection (0.5 µM) and 2 measurement cycles. MAS-injected cells remain coupled whereas FCCP-injected cells become uncoupled meaning Complex V (ATP synthase) inhibition should not result in a change in OCR. […] FIG. 4 Representative complex V assay trace. Complex V assays consisted of cells in a solution containing substrates for complex IV before a series of compound injections into the cell culture microplate. FCCP (OXPHOS uncoupler) (Trace A) or MAS buffer (Traces B and C) was first injected, followed by 2 cycles of measurements. Flutamide, 2-hydroxyflutamide, oligomycin (positive control), or vehicle control was then injected into both the uncoupled (FCCP-treated) and coupled (MAS-treated) cells. […] Each measurement cycle was a total of 3 min. Following completion of OCR assays, medium was removed from all wells and 20 µl of somatic cell ATP releasing agent was added to each well before shaking for 1 min and transfer of 10 µl of lysate to a 96-well plate and performance of a BCA assay according to the manufacturer’s instructions. Protein content per well was used to normalize OCR.

HepG2 cells [8] = test: Assessment of superoxide level (mitoSOX red); type: cell-based; conditions: 2 h; for concentration significantly increasing cellular superoxide: HepG2 cells, glucose medium, 15–500 µM; for superoxide level in galactose media: acutely galactose-conditioned HepG2 cells, up to 500 µM
Description: HepG2 cells were collected by trypsinization and seeded on a 24-well plate (150 000 cells/500 µl/well) and incubated overnight in glucose medium (37°C, 5% CO2). […] Protein content per well was determined using a BCA assay (as described earlier) and was used to normalize superoxide levels.

HepG2 cells [9] = test: Assessment of NAD+/NADH ratio; type: cell-based; conditions: 2 h, glucose medium, 30–500 µM
Description: HepG2 cells were collected by trypsinization and seeded on a 24-well plate (450 000 cells/500 µl/well) and incubated overnight in glucose medium (37 °C, 5% CO2). […] NAD^+ and NADH concentrations were measured in lysates using a NAD^+/NADH ratio assay kit according to the manufacturer’s instructions.

[10] = cited from earlier work; for half-life: after flutamide administration, ref Kostrubsky et al., 2007; for Cmax: plasma, ref Schulz et al., 1988, read-out: maximum plasma concentration (Cmax)
bile salt export pump = system: bile salt export pump; design: method as in Kostrubsky et al., 2007; conditions: via bile salt export pump inhibition; ref Kostrubsky et al., 2007; read-out: IC50 inhibition of taurocholate efflux; cited from earlier work
[11] = galactose medium, read-out: EC50ATP (μM) Galactose
[12] = glucose medium, read-out: EC50ATP (μM) Glucose

SMILES | decrease in ATP content in galactose medium compared with glucose medium (HepG2 cells [1]) | EC50 (HepG2 cells [1]; [11]) [µM] | EC50 (HepG2 cells [1]; [12]) [µM] | complex I activity (response to rotenone) [2] | complex II activity (response to succinate) [3] | complex IV activity [4] | concentration inducing a significant reduction in complex I activity [5] [µM] | complex II activity [6] | complex III activity [7] | concentration significantly increasing cellular superoxide (HepG2 cells [8]) [µM] | superoxide level in galactose media (HepG2 cells [8]) | NAD+/NADH ratio (HepG2 cells [9]) | concentration significantly decreasing NAD+/NADH ratio (HepG2 cells [9]) [µM] | half-life [10] [h] | IC50 (bile salt export pump) [µM] | also measured
CC(C)C(=O)Nc1ccc([N+](=O)[O-])c(C(F)(F)F)c1 [Flutamide] | significantly more in the galactose medium | 43.9 | 255 | significant reduction in complex I activity | Only 2-hydroxyflutamide induced a significantly reduced response | Neither compound appeared to have a significant impact | ≥ 30 | only 2-hydroxyflutamide and not flutamide induced a significant reduction | no significant inhibition | ≥ 30 | significant increase | significantly decreased | ≥ 100 | 7.8 | 75 | EC50ATPglu/EC50ATPgal (HepG2 cells [1]): 5.82 (0.03); EC50ATPglu/EC50ATPgal (HepG2 cells [1]; listed as flutamide): ≥ 2; OCR upon compound injection, complex I assay ([5]; permeabilised HepG2 cells, up to 250 µM): immediate concentration-dependent reduction in OCR; complex V activity (Complex V (ATP synthase)): this was not the case for flutamide; Cmax ([10]; single 250 mg dose of flutamide): 72.2 nM; parent drug as share of detectable compound in the plasma following administration ([10]; ref Radwanski et al., 1989): 2.5%
CC(C)(O)C(=O)Nc1ccc([N+](=O)[O-])c(C(F)(F)F)c1 [2-hydroxyflutamide] | significantly more in the galactose medium | 48.5 | 267 | significant reduction in complex I activity | significantly reduced response | Neither compound appeared to have a significant impact | ≥ 30 | significant reduction | no significant inhibition | ≥ 30 | significant increase | significantly decreased | ≥ 100 | 9.6 | 110 | concentration inducing a significant decline in complex II activity ([6]; complex II-stimulated maximal respiration, 2–30 and 10–250 µM): ≥ 10 µM; concentration inducing a significant reduction in complex V activity (Complex V (ATP synthase)): ≥ 125 µM; Cmax ([10]; metabolite after single 250 mg dose of flutamide): 4400 nM
